Results from patent US20190175598A1, “COMBINATION THERAPIES FOR THE TREATMENT OF HEPATOCELLULAR CARCINOMA” (Eisai R&D Management Co., Ltd., priority 2016, published 2019).

Experiments:
[1] = system: human primary hepatocellular carcinoma model LIX066; test: LIX066 patient derived xenograft model of hepatocellular carcinoma, antitumor activity; assay type: in vivo, mice; conditions: Example 3, oral daily 17 days
Description: The human primary hepatocellular carcinoma model LIX066 model from ChemPartner (shangpharma.com) were implanted into the female severe combined immunodeficiency (SCID) mice. When the tumors developed in mice, the mice were sacrificed and the tumors were resected and implanted into female nude mice for tumor preservation, histopathology diagnosis and in vivo efficacy study. Solid tumor tissues were depleted of necrotic components, cut into 10-15 mg pieces, and mixed. Three to five pieces were mixed with […] Matrigel and implanted into a flank of 6-8-week-old female NU/NU immune compromised mice weighing 18-20 g nude mice. 30 mice with average tumor volume of 160 mm^3 selected and randomized into 6 groups of 5 mice each. All of the primary human tumors utilized in this study had undergone 3-5 passages in vivo and the tumor histology of each was maintained over the serial transplantation process. Per os (PO) treatment with Compound 1 (300 and 500 mg/kg) alone or in combination with vehicle (control) or palbociclib (100 mg/kg) administered once daily (QD) continued for 17 days. The administration volume (0.1 mL/10 g body weight) was calculated from the individual mouse body weight (BW) before administration. Body weights were measured daily and tumor measurements were performed twice weekly.
(§1) where Day X is any day of measurement
(§2) The anti-tumor effects of the treatment, Partial (PR) and complete regression (CR), stable (SD) and progressive (PD) disease were defined by the Xenograft Model Response Criteria (see below). Mice with >20% body weight loss compared to their Day 1 body weight or bearing tumors with the longest diameter […] were immediately euthanized to prevent any pain or suffering in the animal as according to IACUC guidelines.
Data are expressed as the mean±SEM for Tumor Volume (TV). The differences in TV between groups were analyzed by two way ANOVA followed by Sidak post hoc test. Statistical analyses were performed using the GraphPad Prism version 6 (GraphPad Software, La Jolla, Calif.). […]

[2] = system: human hepatocellular cancer cell line JHH7 xenograft; test: JHH7 xenograft model of hepatocellular carcinoma, antitumor activity; assay type: in vivo, mice; conditions: PO QD 8 days
Description: The cell line used, JHH7, was sourced from Japanese Collection of Research Bioresources Cell Bank (JCRB), verified free of mycobacterium contamination and verified for identity by short tandem repeat analysis of 9 markers.
JHH7 cells were maintained in William's E Medium (Thermo Fisher Scientific, 12551-032) with 10% fetal bovine serum. Cells were maintained prior to and during experiments at 37° C. 5% CO2, and at 95% relative humidity. Cell passage number was limited to between 12 and 20.
The human hepatocellular cancer cell line JHH7 was cultured in William's E Medium (Thermo Fisher Scientific, 12551-032) containing 10% fetal bovine serum at 37° C. in a 5% CO2 atmosphere and kept in exponential growth phase. For harvesting, the cells were washed with phosphate buffered saline, incubated with 0.25% trypsin-EDTA, and suspended in a 1:1 mixture of William's E Medium and Matrigel (Corning) at a final concentration of 5×10^7 cells/mL. To generate xenografts, 0.1-mL of the inoculum was injected subcutaneously into the right flank region of NU/NU immuno compromised 6-8 week old female mice, giving a final concentration of 5×10^6 cells/mouse. When the mean tumor volume (TV) reached approximately 170 mm^3 (10 days after implantation), 144 mice were selected based on their TVs, and were sorted into 18 treatment groups with 8 animals per group. Per os (PO) treatment with Compound 1 (300 and 500 mg/kg) alone or in combination with vehicle (control) or palbociclib (50 and 100 mg/kg) or ribociclib (75 and 150 mg/kg) administered once daily (QD) continued for 8 days. The administration volume (0.1 mL/10 g body weight) was calculated from the individual mouse body weight (BW) before administration. Body weights were measured daily and tumor measurements were performed twice weekly.
as §1, §2
Data are expressed as the mean±SEM for Tumor Volume (TV). The differences in TV between groups were analyzed by two way ANOVA followed by Sidak post hoc test. Statistical analyses were performed using the GraphPad Prism version 6 (GraphPad Software, La Jolla, Calif.).
Progressive disease (PD): 3 consecutive measurements >120% of starting volume or 3 consecutive increasing measurements from best response, Stable disease (SD): 3 consecutive measurements >50% and <120% of starting volume, Partial regression (PR): 3 consecutive measurements <50% of starting volume, Complete regression (CR): 3 consecutive measurements <30 mm^3.

SMILES: CC(=O)c1c(C)c2cnc(Nc3ccc(N4CCNCC4)cn3)nc2n(C2CCCC2)c1=O [Palbociclib, 6-acetyl-8-cyclopentyl-5-methyl-2-{[5-(piperazin-1-yl)pyridin-2-yl]amino}pyrido[2,3-d]pyrimidin-7(8H)-one, reference compound]
- Tumor Growth Inhibition % (TGI) ([1]; palbociclib 100 mg/kg single agent, vs vehicle controls (P≤0.001)): 62%
- Tumor Growth Inhibition % (TGI) ([2]; Example 2, palbociclib 50 mg/kg single agent, vs vehicle controls (not significant)): 11%
- Tumor Growth Inhibition % (TGI) ([2]; Example 2, palbociclib 100 mg/kg single agent, vs vehicle controls (P≤0.05)): 26%

SMILES: C=CC(=O)Nc1cc(N2CCN(CC)CC2)ccc1Nc1cc(N(C)C(=O)Nc2c(Cl)c(OC)cc(OC)c2Cl)ncn1 [Compound 1, N-(2-((6-(3-(2,6-dichloro-3,5-dimethoxyphenyl)-1-methylureido)pyrimidin-4-yl)amino)-5-(4-ethylpiperazin-1-yl)phenyl)acrylamide]
- Tumor Growth Inhibition % (TGI) ([1]; Compound 1 300 mg/kg single agent, vs vehicle controls (P≤0.0001)): 59%
- Tumor Growth Inhibition % (TGI) ([1]; Compound 1 500 mg/kg single agent, vs vehicle controls (P≤0.0001)): 70%
- Tumor Growth Inhibition % (TGI) ([2]; Example 1, Compound 1 300 mg/kg single agent, vs vehicle controls): 14%
- Tumor Growth Inhibition % (TGI) ([2]; Example 1, Compound 1 500 mg/kg single agent, vs vehicle controls): 35%
- Tumor Growth Inhibition % (TGI) ([2]; Example 2, Compound 1 300 mg/kg single agent, vs vehicle controls (P≤0.01)): 12%
- Tumor Growth Inhibition % (TGI) ([2]; Example 2, Compound 1 500 mg/kg single agent, vs vehicle controls (P≤0.0001)): 32%

SMILES: CN(C)C(=O)c1cc2cnc(Nc3ccc(N4CCNCC4)cn3)nc2n1C1CCCC1 [Ribociclib, 7-Cyclopentyl-2-(5-piperazin-1-yl-pyridin-2-ylamino)-7H-pyrrolo[2,3-d]pyrimidine-6-carboxylic acid dimethylamide, reference compound]
- Tumor Growth Inhibition % (TGI) ([2]; Example 1, ribociclib 75 mg/kg single agent, vs vehicle controls (not significant)): 13%
- Tumor Growth Inhibition % (TGI) ([2]; Example 1, ribociclib 150 mg/kg single agent, vs vehicle controls (P≤0.0001)): 23%
